Experimental findings from US10538802B2, “Polypeptide substrate for the detection of von Williebrand factor cleaving protease ADAMTS13” (IMMUCOR GTI DIAGNOSTICS, INC., priority 2011, dated 2020) are described below.

No end group written: not given here.

The nature of data set [1]: Solubility of the SEQ ID NO: 7 polypeptide substrate (working solution centrifuged, pellet observed). Format: physicochemical. On the procedure:
250 .micro.L of working solution is prepared as above. The solution is vortexed vigorously and appears to be in solution. The solution is centrifuged at ˜12,000 g for about 2 minutes. After centrifugation, a very small pink pellet is noted at the bottom of the tube. […] Another tube is prepared as above substituting water for the substrate buffer. This tube is also centrifuged. Once again a pink pellet is observed in the bottom of the tube. The pellet observed in the water solution is noticeably larger than the pellet observed in the substrate buffer solution.

For another data set, the target named is T1, ADAMTS13 (Homo sapiens, UniProt Q76LX8).
T1 construct: tissue Gen-Probe GTI Diagnostics (ATS-13 kit calibrators, controls and proficiency samples); George King Biomedical Inc. (FACT, A-FACT, B-FACT plasmas) ATS-13; host or cells: plasma
T1 sequence (Q76LX8 75-1427): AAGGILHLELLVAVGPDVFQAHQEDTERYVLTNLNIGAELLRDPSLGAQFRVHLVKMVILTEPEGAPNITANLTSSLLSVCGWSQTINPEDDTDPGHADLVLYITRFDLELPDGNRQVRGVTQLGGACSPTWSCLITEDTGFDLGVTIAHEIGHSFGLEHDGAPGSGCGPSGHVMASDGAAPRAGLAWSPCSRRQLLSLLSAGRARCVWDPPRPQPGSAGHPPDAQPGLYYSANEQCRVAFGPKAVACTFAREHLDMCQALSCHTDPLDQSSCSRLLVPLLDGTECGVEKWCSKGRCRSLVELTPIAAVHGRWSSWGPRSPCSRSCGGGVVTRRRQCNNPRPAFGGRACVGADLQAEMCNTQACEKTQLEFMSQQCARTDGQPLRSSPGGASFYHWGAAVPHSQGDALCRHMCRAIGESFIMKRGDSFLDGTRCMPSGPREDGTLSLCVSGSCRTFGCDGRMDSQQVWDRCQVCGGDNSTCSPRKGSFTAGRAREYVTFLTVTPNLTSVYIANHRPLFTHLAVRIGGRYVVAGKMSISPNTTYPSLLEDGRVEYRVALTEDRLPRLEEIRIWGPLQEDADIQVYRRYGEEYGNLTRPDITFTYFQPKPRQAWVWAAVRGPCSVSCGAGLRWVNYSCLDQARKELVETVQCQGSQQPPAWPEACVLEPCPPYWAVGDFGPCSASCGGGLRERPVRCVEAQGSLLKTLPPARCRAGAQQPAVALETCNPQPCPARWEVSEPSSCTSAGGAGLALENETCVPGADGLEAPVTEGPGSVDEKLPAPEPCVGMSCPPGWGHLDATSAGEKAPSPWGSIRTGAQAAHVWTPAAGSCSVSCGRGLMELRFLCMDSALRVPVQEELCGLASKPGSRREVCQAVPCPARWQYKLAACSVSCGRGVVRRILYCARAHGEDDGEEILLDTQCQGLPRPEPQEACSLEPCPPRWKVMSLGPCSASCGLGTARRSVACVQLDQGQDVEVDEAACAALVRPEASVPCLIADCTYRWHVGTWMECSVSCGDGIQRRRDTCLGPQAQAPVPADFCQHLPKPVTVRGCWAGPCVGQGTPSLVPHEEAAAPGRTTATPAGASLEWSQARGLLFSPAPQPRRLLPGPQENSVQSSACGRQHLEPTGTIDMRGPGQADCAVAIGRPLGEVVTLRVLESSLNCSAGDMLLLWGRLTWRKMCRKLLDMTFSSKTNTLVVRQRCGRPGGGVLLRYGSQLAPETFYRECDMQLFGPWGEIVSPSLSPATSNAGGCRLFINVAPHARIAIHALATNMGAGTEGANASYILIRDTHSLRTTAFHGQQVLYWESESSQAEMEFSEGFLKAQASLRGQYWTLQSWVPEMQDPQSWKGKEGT
Description: ADAMTS13 activity assay with fluorogenic (FRET) polypeptide substrate and diluted plasma samples. Format: biochemical. The conditions noted are these: for Assigned/Expected % Normal ADAMTS13 Activity Values Based on FRETS-VWF73 Substrate: incubation 30 Minutes. As to the method: The procedure in this example was performed substantially as described in Kokame, K., Y. Nobe, Y. Kokubo, A. Okayama, and T. Miyata. 2005. FRETS-VWF73, a first fluorogenic substrate for ADAMTS13 assay. Br. J. Haematol. 129:93-100, but using SEQ ID NO: 1 in place of the 73 amino acid substrate described therein. The FRETS-VWF73 substrate solution was dissolved in 25% dimethyl sulphoxide/water to prepare the 100 microM stock solution. The GTI FRET4 SEQ ID NO: 1 was dissolved in 100% DMSO. Both substrates were diluted to equal concentrations using ATS-13 substrate buffer (Gen-Probe GT1 Diagnostics, Inc., U.S.A., Cat#ATS-13).
Plasma samples were diluted according to the ATS-13 Direction Insert using ATS-13 specimen diluent (Gen-Probe GTI Diagnostics, Inc., U.S.A., Cat# ATS-13). The diluted plasma samples were mixed with the diluted substrate and the fluorescence was read at 0, 5, 10, 15, 20, 30, 45 minutes using a Biotek FLX800 at the appropriate excitation and emission wavelengths for each substrate.
The fluorophore-quencher pair in the SEQ ID NO: 1 polypeptide substrate is FAM-5/TQ 2^Tm (Ex 485±20; Em 528±20; AAT Bioquest, Inc. Sunnyvale, Calif. U.S.A.). The fluorophore and quencher pair of FRETS-VWF73 (Nma/Dnp) described in Kokame has been substituted with FAM-5 and TQ_2 respectively in GTI_FRET4 SEQ ID NO: 1. Furthermore, in the SEQ ID NO: 1 polypeptide the position of the fluorophore (FAM-5) and quencher (TQ_2) has been swapped relative to the position of the fluorophore and quencher of the FRETS-VWF73 construct. Therefore, for GTI_FRET4 SEQ ID NO: 1, attachment of the fluorophore (FAM-5) occurs by substituting asparagine with cystine at position 15. The quencher (TQ_2) was attached by substituting glutamine with lysine at position 4 (FIG. 2 and Table 4).
For this experiment, substrate concentration and fluorescence reader settings determined on the previous experiment are used. The specimens tested (listed in Table 3), include a panel of proficiency samples prepared for use with ATS-13 (Gen-Probe GTI Diagnostics, Inc., U.S.A., Cat# ATS-13) which included samples with normal or deficient ADAMTS13 activity levels. In addition, six Factor Assay ConTrol plasma were used (2 FACT, 2 A-FACT and 2 B-FACT, from George King Biomedical Inc., Kansas, USA). The assays for the SEQ ID NO: 1 substrate and for the prior art FRETS-VWF73 assay were performed generally as according to the procedure described in Example 1. Substrate is prepared according to the conditions used for initial testing of the substrate, which prepared the molar amount of SEQ ID NO: 1 polypeptide substrate used in the assay to be equivalent to the molar amount of FRETS-VWF73 used in the prior art. The […] assays were read at 0, 5, 10, 15, 20, 30, 45 minutes.
Testing of substrate for cleavability by ADAMTS13 is determined as is generally described in Example 1. […]

Consider “DREKAPNLVYMVTGCPASDEIKRLPGDIIGWPNAPILIQDFETLPREAPDLVLQR [GTI_FRET5]”, for which the “solubility in water compared with substrate buffer” value in data set [1] (pellet size after centrifugation) is “less soluble in water than in the buffer”. The “solubility in the working solution as prepared” value in data set [1] (substrate buffer, centrifuged ~12,000 g about 2 minutes) was “not completely soluble”.
Consider “DREQAPNLVYMVTGNPASDEIKRLPGDIQVVPIGVGPNANVOELERIGWPNAPILIQDFLTLPREAPDLVLQR [FRETS-VWF73, reference compound]”, for which the “reaction time in the ADAMTS13 assay” value at ADAMTS13 amounted to 30 min. Further, the “trend line of the calibration curve” value at ADAMTS13 was “polynomial”. Moreover, the “difference between Calibrator A and E, dynamic range” value at ADAMTS13 (Example 2, at 30 minutes) was 2500 RFU. Further, the “Assigned/Expected % Normal ADAMTS13 Activity Values Based on FRETS-VWF73 Substrate” value at ADAMTS13 (sample Calibrator A) was 0 % Normal; at ADAMTS13 (sample Calibrator B), 9 % Normal; on ADAMTS13 (sample Calibrator C), 34 % Normal; on ADAMTS13 (sample Calibrator D), 55 % Normal; at ADAMTS13 (sample Calibrator E) it was 102 % Normal; at ADAMTS13 (sample MON110707) it was ~90-100 % Normal. Also, the “Assigned/Expected % Normal ADAMTS13 Activity Values Based on FRETS-VWF73 Substrate” value at ADAMTS13 (sample Positive Control High) is 36-54 % Normal; at ADAMTS13 (sample Positive Control Low), 6-17 % Normal; at ADAMTS13 (sample UAMS041609), roughly 35 % Normal; at ADAMTS13 (sample VF) it was roughly 20 % Normal.
